According to US20250179066A1, “ZWITTERIONIC ANTIBACTERIAL COMPOUNDS” (Hoffmann-La Roche Inc., priority 2022, published 2025):
Counter-ions that a name gives are not always drawn. Like-named read-outs stand apart in the source and are kept apart here.

Test system: Acinetobacter baumannii ATCC17961
Test: Antimicrobial susceptibility testing: 90% growth inhibitory concentration (IC90) determination
Format: cell-based
Details: 90% growth inhibitory concentration against Acinetobacter baumannii ATCC17961, Iso-Sensitest broth, OD 600 nm over 16 h, read-out: ATCC 17961 IC90
In short: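 OD600 monitored each minute over 16 h at 35±2° C for bacteria (~5×10^5 CFU/mL final) in Iso-Sensitest medium with 10-point twofold compound series (e.g. 10-0.0195 μM final). Concentration giving 90% growth inhibition in log phase reported as IC90.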

[1] = Acinetobacter baumannii, ATCC17961, 16 h

IC90 [1] [nM]	Compound	IC90 [nM]
213	Cn1c(-c2cn(-c3cc4[nH]c(C(=O)N5CCNCC5)cc4cn3)nc2C(F)(F)F)cnc1C(=O)Nc1ccc(C(=O)N2CCN(C(=O)[C@H]3CC[N@+](CC(=O)O)(CC4CNC4)CC3)CC2)c(Cl)c1 [Example 118, cis-2-[1-(azetidin-3-ylmethyl)-4-[4-[2-chloro-4-[[1-methyl-5-[1-[2-(piperazine-1-carbonyl)-1H-pyrrolo[3,2-c]pyridin-6-yl]-3-(trifluoromethyl)pyrazol-4-yl]imidazole-2-carbonyl]amino]benzoyl]piperazine-1-carbonyl]piperidin-1-ium-1-yl]acetic acid. 1:1 2,2,2-trifluoroacetate]	–
236	Cn1c(-c2cn(-c3cc4[nH]c(C(=O)N5CCOC(F)(F)C5)cc4cn3)nc2C(F)(F)F)cnc1C(=O)Nc1ccc(C(=O)N2CCN(C(=O)[C@H]3CC[N@+](CC(=O)O)(CC4CNC4)CC3)CC2)c(Cl)c1 [Example 119, cis-2-[1-(azetidin-3-ylmethyl)-4-[4-[2-chloro-4-[[5-[1-[2-(2,2-difluoromorpholine-4-carbonyl)-1H-pyrrolo[3,2-c]pyridin-6-yl]-3-(trifluoromethyl)pyrazol-4-yl]-1-methyl-imidazole-2-carbonyl]amino]benzoyl]piperazine-1-carbonyl]piperidin-1-ium-1-yl]acetic acid. 1:1 2,2,2-trifluoroacetate]	–
527	Cn1c(-c2cn(-c3cc4[nH]c(C(=O)NC5CCNC5=O)cc4cn3)nc2C(F)(F)F)cnc1C(=O)Nc1ccc(C(=O)N2CCN(C(=O)[C@H]3CC[N@+](CC(=O)O)(CC4CNC4)CC3)CC2)c(Cl)c1 (stereo partly drawn) [Example 120, cis-2-[1-(azetidin-3-ylmethyl)-4-[4-[2-chloro-4-[[5-[1-[2-[(2-ketopyrrolidin-3-yl)carbamoyl]-1H-pyrrolo[3,2-c]pyridin-6-yl]-3-(trifluoromethyl)pyrazol-4-yl]-1-methyl-imidazole-2-carbonyl]amino]benzoyl]piperazine-1-carbonyl]piperidin-1-ium-1-yl]acetic acid. 1:1 2,2,2-trifluoroacetate]	–
375	Cn1c(-c2cn(-c3cc4[nH]c(C(=O)N5CCO[C@]6(CCOC6)C5)cc4cn3)nc2C(F)(F)F)cnc1C(=O)Nc1ccc(C(=O)N2CCN(C(=O)[C@H]3CC[N@+](CC(=O)O)(CC4CNC4)CC3)CC2)c(Cl)c1 [Example 121, cis-2-[1-(azetidin-3-ylmethyl)-4-[4-[2-chloro-4-[[5-[1-[2-[(5R)-2,6-dioxa-9-azaspiro[4.5]decane-9-carbonyl]-1H-pyrrolo[3,2-c]pyridin-6-yl]-3-(trifluoromethyl)pyrazol-4-yl]-1-methyl-imidazole-2-carbonyl]amino]benzoyl]piperazine-1-carbonyl]piperidin-1-ium-1-yl]acetic acid. 1:1 2,2,2-trifluoroacetate]	–
235	Cn1c(-c2cn(-c3cc4[nH]c(C(=O)N5CCSCC5)cc4cn3)nc2C(F)(F)F)cnc1C(=O)Nc1ccc(C(=O)N2CCN(C(=O)[C@H]3CC[N@+](CC(=O)O)(CC4CNC4)CC3)CC2)c(Cl)c1 [Example 122, cis-2-[1-(azetidin-3-ylmethyl)-4-[4-[2-chloro-4-[[1-methyl-5-[1-[2-(thiomorpholine-4-carbonyl)-1H-pyrrolo[3,2-c]pyridin-6-yl]-3-(trifluoromethyl)pyrazol-4-yl]imidazole-2-carbonyl]amino]benzoyl]piperazine-1-carbonyl]piperidin-1-ium-1-yl]acetic acid. 1:1 2,2,2-trifluoroacetate]	–
216	CN(C)C(=O)c1cc2cnc(-n3cc(-c4cnc(C(=O)Nc5ccc(C(=O)N6CCN(C(=O)[C@H]7CC[N@+](CC(=O)O)(CC8CNC8)CC7)CC6)c(Cl)c5)n4C)c(C(F)(F)F)n3)cc2[nH]1 [Example 123, cis-2-[1-(azetidin-3-ylmethyl)-4-[4-[2-chloro-4-[[5-[1-[2-(dimethylcarbamoyl)-1H-pyrrolo[3,2-c]pyridin-6-yl]-3-(trifluoromethyl)pyrazol-4-yl]-1-methyl-imidazole-2-carbonyl]amino]benzoyl]piperazine-1-carbonyl]piperidin-1-ium-1-yl]acetic acid. 1:1 2,2,2-trifluoroacetate]	–
103	COCCNc1ccc(-n2cc(-c3cnc(C(=O)Nc4ccc(C(=O)N5CCN(C(=O)[C@H]6CC[N@+](CC(=O)O)(CC7CNC7)CC6)CC5)c(F)c4)n3C)c(C(F)(F)F)n2)c(F)c1 [Example 124, cis-2-[1-(azetidin-3-ylmethyl)-4-[4-[2-fluoro-4-[[5-[1-[2-fluoro-4-(2-methoxyethylamino)phenyl]-3-(trifluoromethyl)pyrazol-4-yl]-1-methyl-imidazole-2-carbonyl]amino]benzoyl]piperazine-1-carbonyl]piperidin-1-ium-1-yl]acetic acid; formate]	–
361	Cn1c(-c2cn(-c3cc4[nH]c(C(=O)NO)cc4cn3)nc2C(F)(F)F)cnc1C(=O)Nc1ccc(C(=O)N2CCN(C(=O)[C@H]3CC[N@+](CC(=O)O)(CC4CNC4)CC3)CC2)c(Cl)c1 [Example 125, cis-2-[1-(azetidin-3-ylmethyl)-4-[4-[2-chloro-4-[[5-[1-[2-(hydroxycarbamoyl)-1H-pyrrolo[3,2-c]pyridin-6-yl]-3-(trifluoromethyl)pyrazol-4-yl]-1-methyl-imidazole-2-carbonyl]amino]benzoyl]piperazine-1-carbonyl]piperidin-1-ium-1-yl]acetic acid. 1:1 2,2,2-trifluoroacetate]	–
176	Cn1c(-c2cn(-c3ccc(NCCOC(F)F)cc3F)nc2C(F)(F)F)cnc1C(=O)Nc1ccc(C(=O)N2CCN(C(=O)[C@H]3CC[N@+](CC(=O)O)(CC4CNC4)CC3)CC2)c(Cl)c1 [Example 126, cis-2-[1-(azetidin-3-ylmethyl)-4-[4-[2-chloro-4-[[5-[1-[4-[2-(difluoromethoxy)ethylamino]-2-fluoro-phenyl]-3-(trifluoromethyl)pyrazol-4-yl]-1-methyl-imidazole-2-carbonyl]amino]benzoyl]piperazine-1-carbonyl]piperidin-1-ium-1-yl]acetic acid;formate]	–
364	Cc1cc(NC(=O)c2ncc(-c3cn(-c4ccc5[nH]c(CCO)cc5n4)nc3C(F)(F)F)n2C)ccc1C(=O)N1CCN(C(=O)[C@H]2CC[N@@+](CCCN)(CC(=O)O)CC2)CC1 [Example 127, cis-2-[1-(3-aminopropyl)-4-[4-[4-[[5-[1-[2-(2-hydroxyethyl)-1H-pyrrolo[3,2-b]pyridin-5-yl]-3-(trifluoromethyl)pyrazol-4-yl]-1-methyl-imidazole-2-carbonyl]amino]-2-methyl-benzoyl]piperazine-1-carbonyl]piperidin-1-ium-1-yl]acetic acid. 1:1 2,2,2-trifluoroacetate]	–
355	Cn1c(-c2cn(-c3ccc4[nH]c(CCN)cc4n3)nc2C(F)(F)F)cnc1C(=O)Nc1ccc(C(=O)N2CCN(C(=O)[C@H]3CC[N@+](CC(=O)O)(CC4CNC4)CC3)CC2)c(Cl)c1 [Example 129, cis-2-[4-[4-[4-[[5-[1-[2-(2-aminoethyl)-1H-pyrrolo[3,2-b]pyridin-5-yl]-3-(trifluoromethyl)pyrazol-4-yl]-1-methyl-imidazole-2-carbonyl]amino]-2-chloro-benzoyl]piperazine-1-carbonyl]-1-(azetidin-3-ylmethyl)piperidin-1-ium-1-yl]acetic acid; chloride]	–
–	Cn1c(-c2cn(-c3ccc(N)cc3F)nc2C(F)(F)F)cnc1C(=O)Nc1ccc(C(=O)N2CCN(C(=O)OCC[N+](CCCN)(CCCN)CC(=O)O)CC2)c(Cl)c1 [Example 130, 2-[4-[4-[[5-[1-(4-amino-2-fluoro-phenyl)-3-(trifluoromethyl)pyrazol-4-yl]-1-methyl-imidazole-2-carbonyl]amino]-2-chloro-benzoyl]piperazine-1-carbonyl]oxyethyl-bis(3-aminopropyl)-(carboxymethyl)ammonium; formate]	252
103	Cn1c(-c2cn(-c3ccc(O)cc3F)nc2C(F)(F)F)cnc1C(=O)Nc1ccc(C(=O)N2CCN(C(=O)[C@H]3CC[N@@+](CCCN)(CC(=O)O)CC3)CC2)c(F)c1 [Example 131, cis-2-[1-(3-aminopropyl)-4-[4-[2-fluoro-4-[[5-[1-(2-fluoro-4-hydroxy-phenyl)-3-(trifluoromethyl)pyrazol-4-yl]-1-methyl-imidazole-2-carbonyl]amino]benzoyl]piperazine-1-carbonyl]piperidin-1-ium-1-yl]acetic acid;formate]	–
139	Cc1cc(NC(=O)c2ncc(-c3cn(-c4ccc5[nH]ccc5n4)nc3C(F)(F)F)n2C)ccc1C(=O)N1CCN(C(=O)[C@H]2CC[N@+](CC(=O)O)(CC3CNC3)CC2)CC1 [Example 132, cis-2-[1-(azetidin-3-ylmethyl)-4-[4-[2-methyl-4-[[1-methyl-5-[1-(1H-pyrrolo[3,2-b]pyridin-5-yl)-3-(trifluoromethyl)pyrazol-4-yl]imidazole-2-carbonyl]amino]benzoyl]piperazine-1-carbonyl]piperidin-1-ium-1-yl]acetic acid. 1:1 2,2,2-trifluoroacetate]	–
146	Cn1c(-c2cn(-c3ccc4[nH]ccc4n3)nc2C(F)(F)F)cnc1C(=O)Nc1ccc(C(=O)N2CCN(C(=O)[C@H]3CC[N@+](CC(=O)O)(CC4CNC4)CC3)CC2)c(F)c1 [Example 133, cis-2-[1-(azetidin-3-ylmethyl)-4-[4-[2-fluoro-4-[[1-methyl-5-[1-(1H-pyrrolo[3,2-b]pyridin-5-yl)-3-(trifluoromethyl)pyrazol-4-yl]imidazole-2-carbonyl]amino]benzoyl]piperazine-1-carbonyl]piperidin-1-ium-1-yl]acetic acid. 1:1 2,2,2-trifluoroacetate]	–
